According to US20110124588A1, “SYNERGISTIC ACTIVE INGREDIENT COMBINATIONS” (Bayer Cropscience AG, priority 2008, published 2011):
Like-named read-outs stand apart in the source and are kept apart here.

Experiments:
[1] = tested on: Phaedon cochleariae; assay: Phaedon cochleariae larvae test (sprayed cabbage leaves); assay type: in vivo, mustard beetle (Phaedon cochleariae) larvae; conditions: for pest or weed control at 0.8 g/ha / pest or weed control at 4 g/ha / pest or weed control at 20 g/ha / pest or weed control at 0.16 g/ha / pest or weed control at 100 g/ha: Phaedon cochleariae
Experimental: (§1) If the actual kill rate exceeds the calculated value, the kill of the combination is superadditive, i.e. a synergistic effect is present. In this case, the actually observed kill rate must exceed the value calculated using the above formula for the expected kill rate (E).
Solvents: 78 parts by weight of acetone • • 1.5 parts by weight of dimethylformamide Emulsifier: 0.5 part by weight of alkylaryl polyglycol ether
After the desired period of time, the kill in % is determined 100% means that all beetle larvae have been killed; 0% means that none of the beetle larvae have been killed. The kill rates determined are entered into Colby's formula.

[2] = tested on: Spodoptera frugiperda; assay: Spodoptera frugiperda larvae test (sprayed cabbage leaves); assay type: in vivo, army worm (Spodoptera frugiperda) larvae; conditions: for pest or weed control at 0.8 g/ha / pest or weed control at 4 g/ha / pest or weed control at 0.16 g/ha / pest or weed control at 20 g/ha / pest or weed control at 100 g/ha: Spodoptera frugiperda
Text: (§2) The expected activity of a given combination of two active compounds can be calculated as follows, according to S. R. Colby, Weeds 15 (1967), 20-22:
(§3) X is the kill rate, expressed as a percentage of the untreated control, when employing active compound A at an application rate of m g/ha or in a concentration of m ppm, Y is the kill rate, expressed as a percentage of the untreated control, when employing active compound B at an application rate of n g/ha or in a concentration of n ppm and E is the kill rate, expressed as a percentage of the untreated control, when employing active compounds A and B at application rates of m and n g/ha or in a concentration of m and n ppm, then
as §1
(§4) solvents: 78 parts by weight of acetone • • 1.5 parts by weight of dimethylformamide emulsifier: 0.5 part by weight of alkylaryl polyglycol ether
(§5) To produce a suitable preparation of active compound, 1 part by weight of active compound is mixed with the stated amounts of solvents and emulsifier, and the concentrate is diluted with emulsifier-containing water to the desired concentration.
Cabbage leaves (Brassica oleracea) are treated by spraying with the active compound preparation of the desired concentration and are populated with larvae of the army worm (Spodoptera frugiperda) while the leaves are still moist.
After the desired period of time, the kill in % is determined 100% means that all caterpillars have been killed; 0% means that none of the caterpillars have been killed. The kill rates determined are entered into Colby's formula.

[3] = tested on: Tetranychus urticae; assay: Tetranychus urticae test (OP-resistant/spray treatment); assay type: in vivo, greenhouse red spider mite (Tetranychus urticae)
Text: as §2, §3, §1, §4, §5
Discs of bean leaves (Phaseolus vulgaris) which are infested by all stages of the greenhouse red spider mite (Tetranychus urticae) are sprayed with an active compound preparation of the desired concentration.
After the desired period of time, the activity in % is determined 100% means that all spider mites have been killed; 0% means that none of the spider mites have been killed.

[4] = tested on: Myzus persicae; assay: Myzus persicae test (spray treatment of infested cabbage leaves); assay type: in vivo, green peach aphid (Myzus persicae); conditions: for pest or weed control at 0.8 g/ha / pest or weed control at 4 g/ha / pest or weed control at 0.032 g/ha / pest or weed control at 0.16 g/ha: Myzus persicae
Experimental: as §1, §4
After the desired period of time, the kill in % is determined 100% means that all aphids have been killed; 0% means that none of the aphids have been killed. The kill rates determined are entered into Colby's formula.

[5] = single active compound, 100 g/ha, 6 d
[6] = single active compound, 4 g/ha, after 6 d
[7] = 24 h, read-out: Kill in % after 1 d
[8] = 144 h, read-out: Kill in % after 6 d
[9] = Tetranychus urticae, 144 h, read-out: Kill in % after 6 d
[10] = 144 h, single active compound, 0.8 g/ha, 6 d, read-out: Kill in % after 6 d
[11] = 144 h, single active compound, 6 d, read-out: Kill in % after 6 d
[12] = 48 h, read-out: Kill in % after 2 d
[13] = Tetranychus urticae, 48 h, read-out: Kill in % after 2 d
[14] = 144 h, single active compound, 0.16 g/ha, 6 d, read-out: Kill in % after 6 d
[15] = 48 h, single active compound, 2 d, read-out: Kill in % after 2 d
[16] = 48 h, single active compound, 0.16 g/ha, 2 d, read-out: Kill in % after 2 d
[17] = 48 h, single active compound, 0.8 g/ha, 2 d, read-out: Kill in % after 2 d
[18] = 48 h, single active compound, 100 g/ha, 2 d, read-out: Kill in % after 2 d
[19] = 144 h, single active compound, 100 g/ha, 6 d, read-out: Kill in % after 6 d
[20] = Tetranychus urticae, 48 h, single active compound, 4 g/ha, after 2 d, read-out: Kill in % after 2 d
[21] = single active compound, 0.8 g/ha, 6 d

## CSC(=O)O/C(=C(/C#N)c1ccc(Cl)cc1)c1ccccc1C(F)(F)F [IKA 2002]
[1]; [5]
  Kill in % after 6 d: 0%
[2]; [5]
  Kill in % after 6 d: 0%
[3]; [6]
  Kill in % after 6 d: 70%

## Cc1ccc(/N=C/N(C)/C=N/c2ccc(C)cc2C)c(C)c1 [amitraz]
[4]; [7]
  pest or weed control at 0.8 g/ha: 0%
[4]; [8]
  pest or weed control at 4 g/ha: 0%
[3]; [9]
  pest or weed control at 20 g/ha: 80%

## Cc1c(COC(=O)C2C(/C=C(\Cl)C(F)(F)F)C2(C)C)cccc1-c1ccccc1 (stereo not drawn) [bifenthrin]
[4]; [8]
  pest or weed control at 0.032 g/ha: 0%
[1]; [10]
  pest or weed control at 0.8 g/ha: 50%
[2]; [8]
  pest or weed control at 0.8 g/ha: 0%
[3]; [9]
  pest or weed control at 4 g/ha: 40%

## CCOCn1c(-c2ccc(Cl)cc2)c(C#N)c(Br)c1C(F)(F)F [chlorfenapyr]
[1]; [10]
  pest or weed control at 0.8 g/ha: 0%
[1]; [11]
  pest or weed control at 4 g/ha: 83%
[2]; [12]
  pest or weed control at 4 g/ha: 67%
[3]; [13]
  pest or weed control at 4 g/ha: 50%

## CC(c1ccc(Cl)nc1)S(C)(=O)=NC#N (stereo not drawn) [compound (I-5)]
[4]; 24 h, single active compound, 0.16 g/ha, 1 d, read-out: Kill in % after 1 d
  pest or weed control at 0.16 g/ha: 0%
[4]; 24 h, single active compound, 0.8 g/ha, 1 d, read-out: Kill in % after 1 d
  pest or weed control at 0.8 g/ha: 0%
[4]; [14]
  pest or weed control at 0.16 g/ha: 0%
[4]; [10]
  pest or weed control at 0.8 g/ha: 20%
[1]; [15]
  pest or weed control at 4 g/ha: 0%
  pest or weed control at 20 g/ha: 0%
[1]; [10]
  pest or weed control at 0.8 g/ha: 0%
[1]; [11]
  pest or weed control at 4 g/ha: 0%
  pest or weed control at 20 g/ha: 0%
[2]; [16]
  pest or weed control at 0.16 g/ha: 0%
[2]; [17]
  pest or weed control at 0.8 g/ha: 0%
[2]; 48 h, single active compound, 20 g/ha, 2 d, read-out: Kill in % after 2 d
  pest or weed control at 20 g/ha: 0%
[2]; [18]
  pest or weed control at 100 g/ha: 0%
[2]; [10]
  pest or weed control at 0.8 g/ha: 0%
[2]; 144 h, single active compound, 4 g/ha, 6 d, read-out: Kill in % after 6 d
  pest or weed control at 4 g/ha: 0%
[2]; 144 h, single active compound, 20 g/ha, 6 d, read-out: Kill in % after 6 d
  pest or weed control at 20 g/ha: 0%
[2]; [19]
  pest or weed control at 100 g/ha: 0%
[3]; Tetranychus urticae, 48 h, single active compound, 0.8 g/ha, after 2 d, read-out: Kill in % after 2 d
  pest or weed control at 0.8 g/ha: 0%
[3]; [20]
  pest or weed control at 4 g/ha: 0%
[3]; Tetranychus urticae, 144 h, single active compound, 4 g/ha, after 6 d, read-out: Kill in % after 6 d
  pest or weed control at 4 g/ha: 0%
[3]; Tetranychus urticae, 144 h, single active compound, 20 g/ha, after 6 d, read-out: Kill in % after 6 d
  pest or weed control at 20 g/ha: 0%
[3]; Tetranychus urticae, 144 h, single active compound, 100 g/ha, after 6 d, read-out: Kill in % after 6 d
  pest or weed control at 100 g/ha: 0%

## CC(c1ccc(C(F)(F)F)nc1)S(C)(=O)=NC#N (stereo not drawn) [compound (I-8)]
[4]; [7]
  pest or weed control at 0.16 g/ha: 0%
[4]; [8]
  pest or weed control at 0.16 g/ha: 60%
[1]; [16]
  pest or weed control at 0.16 g/ha: 0%
[1]; [17]
  pest or weed control at 0.8 g/ha: 0%
[1]; [15]
  pest or weed control at 4 g/ha: 0%
  pest or weed control at 20 g/ha: 0%
[1]; [18]
  pest or weed control at 100 g/ha: 67%
[1]; [14]
  pest or weed control at 0.16 g/ha: 0%
[1]; [10]
  pest or weed control at 0.8 g/ha: 0%
[1]; [11]
  pest or weed control at 4 g/ha: 0%
  pest or weed control at 20 g/ha: 17%
[1]; [19]
  pest or weed control at 100 g/ha: 67%
[2]; [12]
  pest or weed control at 0.16 g/ha: 0%
  pest or weed control at 0.8 g/ha: 0%
  pest or weed control at 20 g/ha: 0%
[2]; [8]
  pest or weed control at 0.16 g/ha: 0%
  pest or weed control at 0.8 g/ha: 0%
  pest or weed control at 4 g/ha: 0%
  pest or weed control at 20 g/ha: 0%
[3]; [13]
  pest or weed control at 0.8 g/ha: 0%
  pest or weed control at 4 g/ha: 0%
[3]; [9]
  pest or weed control at 0.16 g/ha: 0%
  pest or weed control at 0.8 g/ha: 0%
  pest or weed control at 4 g/ha: 0%
  pest or weed control at 20 g/ha: 0%
  pest or weed control at 100 g/ha: 0%

## Cc1nn(C)c(/C(OC(=O)C(C)(C)C)=C(\C#N)c2ccc(C(C)(C)C)cc2)c1C [cyenopyrafen, (1E)-2-cyano-2-[4-(1,1-dimethylethyl)phenyl]-1-(1,3,4-trimethyl-1H-pyrazol-5-yl)ethenyl 2,2-dimethylpropanoate]
[1]; [19]
  pest or weed control at 100 g/ha: 0%
[3]; [13]
  pest or weed control at 0.8 g/ha: 70%

## COCCOC(=O)C(C#N)(C(=O)c1ccccc1C(F)(F)F)c1ccc(C(C)(C)C)cc1 (stereo not drawn) [cyflumetofen, 2-methoxyethyl alpha-cyano-alpha-[4-(1,1-dimethylethyl)phenyl]-beta-oxo-2-(trifluoromethyl)benzenepropanoate]
[1]; [19]
  pest or weed control at 100 g/ha: 0%
[3]; [13]
  pest or weed control at 0.8 g/ha: 50%

## CC1(C)[C@H](C(=O)O[C@H](C#N)c2cccc(Oc3ccccc3)c2)[C@@H]1C=C(Br)Br [deltamethrin]
[4]; [7]
  pest or weed control at 0.032 g/ha: 0%
[1]; [17]
  pest or weed control at 0.8 g/ha: 67%
[1]; [14]
  pest or weed control at 0.16 g/ha: 50%
[2]; [8]
  pest or weed control at 0.16 g/ha: 17%
[3]; [9]
  pest or weed control at 4 g/ha: 0%

## CC(C)c1cc(Oc2ccccc2)cc(C(C)C)c1NC(=S)NC(C)(C)C [diafenthiuron]
[1]; [11]
  pest or weed control at 20 g/ha: 0%
[3]; [20]
  pest or weed control at 4 g/ha: 0%

## CN/C(=N\[N+](=O)[O-])NCC1CCOC1 (stereo not drawn) [dinotefuran]
[4]; [7]
  pest or weed control at 0.8 g/ha: 0%
[1]; [8]
  pest or weed control at 0.8 g/ha: 0%
[3]; [13]
  pest or weed control at 20 g/ha: 0%

## Cc1nn(C)c(Oc2ccccc2)c1C=NOCc1ccc(C(=O)OC(C)(C)C)cc1 [fenpyroximate]
[4]; [8]
  pest or weed control at 0.8 g/ha: 0%
[1]; [15]
  pest or weed control at 20 g/ha: 0%
[2]; [8]
  pest or weed control at 100 g/ha: 50%
[3]; [9]
  pest or weed control at 4 g/ha: 60%

## O=C(NC(=O)c1c(F)cccc1F)Nc1ccc(OC(F)(F)C(F)OC(F)(F)F)c(Cl)c1 (stereo not drawn) [novaluron]
[4]; [8]
  pest or weed control at 4 g/ha: 0%
[2]; [12]
  pest or weed control at 0.8 g/ha: 33%
[3]; [13]
  pest or weed control at 20 g/ha: 0%

## CC1=NNC(=O)N(/N=C/c2cccnc2)C1 [pymetrozine]
[4]; [8]
  pest or weed control at 0.16 g/ha: 0%
  pest or weed control at 0.8 g/ha: 60%
[3]; [9]
  pest or weed control at 100 g/ha: 0%

## CCc1nn(C)c(C(=O)NCc2ccc(C(C)(C)C)cc2)c1Cl [tebufenpyrad]
[4]; [8]
  pest or weed control at 0.16 g/ha: 0%
  pest or weed control at 0.8 g/ha: 0%
[1]; [11]
  pest or weed control at 20 g/ha: 0%
[3]; [9]
  pest or weed control at 4 g/ha: 40%

## abamectin
[4]; single active compound, 0.032 g/ha, 6 d
  Kill in % after 6 d: 0%
[1]; single active compound, 0.16 g/ha, 6 d
  Kill in % after 6 d: 0%
[3]; single active compound, 0.032 g/ha, after 2 d
  Kill in % after 2 d: 0%

## emamectin benzoate
[4]; single active compound, 0.0064 g/ha, 6 d
  Kill in % after 6 d: 0%
[2]; single active compound, 0.8 g/ha, 2 d
  Kill in % after 2 d: 83%
[3]; single active compound, 0.032 g/ha, after 6 d
  Kill in % after 6 d: 0%

## spinetoram
[4]; [21]
  Kill in % after 6 d: 0%
[1]; [21]
  Kill in % after 6 d: 50%
[2]; single active compound, 0.16 g/ha, 2 d
  Kill in % after 2 d: 50%
[3]; single active compound, 4 g/ha, after 2 d
  Kill in % after 2 d: 20%

## spinosad
[2]; [21]
  Kill in % after 6 d: 50%
[3]; [6]
  Kill in % after 6 d: 20%
